Measured values reported in ChEMBL document CHEMBL1201862, “PubChem BioAssay data set” (2004).
The source made the active and inactive calls.

Experiments:
[1] = biological target: T1, Heat shock factor protein 1 (Mus musculus, UniProt P38532); assay: enhancement of HSF1-driven luciferase signal – cell-based, NIH3T3, luminescence, dose retest, confirmation (AID 435004); format: functional;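 note: stress induced by proteasome inhibitor MG132 added 30 min after compound; luciferase reporter driven by HSF1 response element in NIH3T3 cells; actives raise luminescence as potentiators of the MG132 stress response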
T1 sequence (P38532 whole entry): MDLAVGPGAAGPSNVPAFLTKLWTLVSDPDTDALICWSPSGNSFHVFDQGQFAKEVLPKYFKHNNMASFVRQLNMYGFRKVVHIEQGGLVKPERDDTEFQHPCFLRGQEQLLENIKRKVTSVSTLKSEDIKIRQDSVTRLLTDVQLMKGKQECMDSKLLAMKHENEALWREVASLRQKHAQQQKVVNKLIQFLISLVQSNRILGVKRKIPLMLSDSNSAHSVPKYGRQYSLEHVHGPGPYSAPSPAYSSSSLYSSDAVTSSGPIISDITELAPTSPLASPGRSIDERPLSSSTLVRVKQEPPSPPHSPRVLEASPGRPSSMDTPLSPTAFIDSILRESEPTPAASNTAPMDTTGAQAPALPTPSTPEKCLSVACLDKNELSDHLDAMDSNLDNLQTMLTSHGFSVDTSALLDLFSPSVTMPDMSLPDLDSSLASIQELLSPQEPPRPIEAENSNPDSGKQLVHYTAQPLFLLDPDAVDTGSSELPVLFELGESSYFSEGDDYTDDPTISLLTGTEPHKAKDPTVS

[2] = biological target: Luciferin 4-monooxygenase (Photinus pyralis, UniProt P08659); assay: inhibition of purified Photinus pyralis luciferase – biochemical, luminescence, dose response (AID 1891)
[3] = Luminescence Cell-Based Dose Confirmation HTS to Identify Inhibitors of Platelet Dense Granule Release. [Related pubchem assays: 1663 (Primary HTS), 1678 (Summary of Project)]; format: functional
Cytochrome P450 1A2 = biological target: T2, Cytochrome P450 1A2 (Homo sapiens, UniProt P05177);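 note: PubChem cytochrome P450 panel assay, CYP1A2 panel member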
T2 sequence (P05177 whole entry): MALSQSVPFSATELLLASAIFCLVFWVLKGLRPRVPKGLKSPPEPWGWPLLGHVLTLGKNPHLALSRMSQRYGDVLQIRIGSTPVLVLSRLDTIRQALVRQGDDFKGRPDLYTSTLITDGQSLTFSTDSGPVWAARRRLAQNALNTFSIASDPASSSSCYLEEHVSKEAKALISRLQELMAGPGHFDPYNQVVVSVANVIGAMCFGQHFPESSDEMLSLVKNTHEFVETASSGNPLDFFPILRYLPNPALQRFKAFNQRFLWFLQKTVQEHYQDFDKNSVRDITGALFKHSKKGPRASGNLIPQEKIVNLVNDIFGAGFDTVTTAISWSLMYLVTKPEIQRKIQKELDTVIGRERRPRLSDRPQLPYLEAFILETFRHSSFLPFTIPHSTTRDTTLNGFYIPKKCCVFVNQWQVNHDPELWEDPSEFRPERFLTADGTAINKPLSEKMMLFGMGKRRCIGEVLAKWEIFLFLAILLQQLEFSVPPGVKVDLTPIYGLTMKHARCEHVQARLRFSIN

Cytochrome P450 3A4 = Cytochrome P450 3A4 (Homo sapiens, UniProt P08684);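 note: CYP3A4 tested as one member of a cytochrome P450 panel screen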
[4] = biological target: FAD-linked sulfhydryl oxidase ALR (Homo sapiens, UniProt P55789); assay: ALR-catalysed DTT oxidation blockers – biochemical, H2O2 detection, luminescence, cherry-pick, dose response (AID 493248)
[5] = biological target: T3, Corticotropin-releasing factor receptor 2/Corticotropin-releasing factor-binding protein (Homo sapiens, UniProt P24387+Q13324); assay: activators of CRF receptor 2 with binding protein – uHTS hits, confirmation (AID 602473); format: functional; settings: read-out: EC50_Mean
T3 sequence (Q13324 whole entry): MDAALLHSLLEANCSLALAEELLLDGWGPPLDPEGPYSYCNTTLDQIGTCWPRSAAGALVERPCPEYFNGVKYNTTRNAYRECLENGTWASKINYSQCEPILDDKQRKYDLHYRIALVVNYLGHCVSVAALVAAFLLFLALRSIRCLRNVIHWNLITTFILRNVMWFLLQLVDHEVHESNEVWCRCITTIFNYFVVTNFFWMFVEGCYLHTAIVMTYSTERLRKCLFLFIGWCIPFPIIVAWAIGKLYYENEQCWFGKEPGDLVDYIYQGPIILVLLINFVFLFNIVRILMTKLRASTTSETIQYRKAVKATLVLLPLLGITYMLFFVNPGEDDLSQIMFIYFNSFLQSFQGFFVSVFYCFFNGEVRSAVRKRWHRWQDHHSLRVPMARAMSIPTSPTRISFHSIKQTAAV
T3 sequence (P24387 whole entry): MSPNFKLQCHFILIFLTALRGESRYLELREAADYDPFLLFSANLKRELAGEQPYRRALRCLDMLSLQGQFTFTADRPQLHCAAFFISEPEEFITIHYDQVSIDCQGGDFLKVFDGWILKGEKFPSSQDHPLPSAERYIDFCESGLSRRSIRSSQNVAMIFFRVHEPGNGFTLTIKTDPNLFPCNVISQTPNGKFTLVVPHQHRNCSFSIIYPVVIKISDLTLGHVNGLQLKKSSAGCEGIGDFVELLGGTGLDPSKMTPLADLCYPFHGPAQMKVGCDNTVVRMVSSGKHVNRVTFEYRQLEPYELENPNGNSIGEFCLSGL

[6] = Luminescence Cell-Based Dose Retest to Confirm Inhibitors of Cancer Stem Cells. [Related pubchem assays (depositor defined):AID2717, AID2721]; format: functional; settings: Homo sapiens
Cytochrome P450 2C19 = Cytochrome P450 2C19 (Homo sapiens, UniProt P33261); assay: Cytochrome panel assay with activity outcomes. Panel member name: p450-cyp2c19 Compounds with AC50 equal or less than 10 uM are considered active; format: functional; settings: read-out: AC50
Cytochrome P450 2C9 = Cytochrome P450 2C9 (Homo sapiens, UniProt P11712)
Cytochrome P450 2D6 = Cytochrome P450 2D6 (Homo sapiens, UniProt P10635);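 note: CYP2D6 member of a cytochrome P450 panel assay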
Cytochrome P450 2D6, sequence (P10635 whole entry): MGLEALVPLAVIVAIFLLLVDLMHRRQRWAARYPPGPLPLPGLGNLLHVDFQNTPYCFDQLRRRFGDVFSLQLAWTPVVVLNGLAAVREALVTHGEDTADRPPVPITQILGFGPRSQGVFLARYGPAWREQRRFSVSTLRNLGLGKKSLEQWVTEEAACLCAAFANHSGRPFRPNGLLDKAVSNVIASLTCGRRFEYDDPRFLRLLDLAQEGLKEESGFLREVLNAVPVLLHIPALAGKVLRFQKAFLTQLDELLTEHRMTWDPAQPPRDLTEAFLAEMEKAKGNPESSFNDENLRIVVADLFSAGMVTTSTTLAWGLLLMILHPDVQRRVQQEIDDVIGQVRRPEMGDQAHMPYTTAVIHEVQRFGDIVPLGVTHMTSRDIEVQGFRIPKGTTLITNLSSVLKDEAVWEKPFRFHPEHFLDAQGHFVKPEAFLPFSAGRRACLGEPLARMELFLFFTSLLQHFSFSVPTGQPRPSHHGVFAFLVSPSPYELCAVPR

Luciferin 4-monooxygenase, sequence (P08659 whole entry): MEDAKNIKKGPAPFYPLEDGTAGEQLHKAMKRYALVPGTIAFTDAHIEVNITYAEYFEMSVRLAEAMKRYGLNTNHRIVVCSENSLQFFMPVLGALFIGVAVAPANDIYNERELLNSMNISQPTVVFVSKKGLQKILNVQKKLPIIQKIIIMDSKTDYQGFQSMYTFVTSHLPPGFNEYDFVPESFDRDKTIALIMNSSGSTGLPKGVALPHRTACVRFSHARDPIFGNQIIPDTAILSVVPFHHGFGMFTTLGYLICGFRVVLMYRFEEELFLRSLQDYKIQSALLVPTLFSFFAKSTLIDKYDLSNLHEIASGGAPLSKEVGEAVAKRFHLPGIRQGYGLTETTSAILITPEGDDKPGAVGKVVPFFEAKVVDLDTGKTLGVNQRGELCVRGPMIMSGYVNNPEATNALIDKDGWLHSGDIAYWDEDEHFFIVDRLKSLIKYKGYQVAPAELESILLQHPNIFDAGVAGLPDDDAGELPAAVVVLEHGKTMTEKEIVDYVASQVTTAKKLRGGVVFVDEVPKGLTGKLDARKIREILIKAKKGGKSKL
Cytochrome P450 2C19, sequence (P33261 whole entry): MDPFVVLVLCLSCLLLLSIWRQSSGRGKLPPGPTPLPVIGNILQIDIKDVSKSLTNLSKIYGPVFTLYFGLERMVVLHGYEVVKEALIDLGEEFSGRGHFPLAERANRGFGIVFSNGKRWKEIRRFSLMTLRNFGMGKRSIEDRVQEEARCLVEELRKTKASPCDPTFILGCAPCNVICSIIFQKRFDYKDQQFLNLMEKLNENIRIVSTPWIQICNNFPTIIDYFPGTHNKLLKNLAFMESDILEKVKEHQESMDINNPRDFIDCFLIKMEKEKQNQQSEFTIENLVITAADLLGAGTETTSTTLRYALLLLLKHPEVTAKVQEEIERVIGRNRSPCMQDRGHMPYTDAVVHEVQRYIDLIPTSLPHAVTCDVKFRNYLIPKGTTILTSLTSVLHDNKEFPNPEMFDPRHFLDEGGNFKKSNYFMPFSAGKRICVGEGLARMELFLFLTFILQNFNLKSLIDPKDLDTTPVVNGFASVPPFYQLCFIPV
Cytochrome P450 3A4, sequence (P08684 whole entry): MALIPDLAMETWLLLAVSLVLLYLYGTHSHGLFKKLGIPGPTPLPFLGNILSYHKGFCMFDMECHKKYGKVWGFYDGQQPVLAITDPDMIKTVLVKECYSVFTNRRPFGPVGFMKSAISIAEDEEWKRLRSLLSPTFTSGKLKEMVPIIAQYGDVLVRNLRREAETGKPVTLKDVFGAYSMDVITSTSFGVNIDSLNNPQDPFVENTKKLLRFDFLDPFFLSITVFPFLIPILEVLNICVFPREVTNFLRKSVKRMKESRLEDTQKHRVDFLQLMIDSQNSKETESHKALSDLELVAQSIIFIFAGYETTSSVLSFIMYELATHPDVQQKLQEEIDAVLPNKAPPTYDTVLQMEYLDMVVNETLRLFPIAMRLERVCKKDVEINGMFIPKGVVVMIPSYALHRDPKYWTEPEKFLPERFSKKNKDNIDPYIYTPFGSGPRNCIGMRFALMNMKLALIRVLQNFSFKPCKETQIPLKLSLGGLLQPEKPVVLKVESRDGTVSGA
FAD-linked sulfhydryl oxidase ALR, sequence (P55789 whole entry): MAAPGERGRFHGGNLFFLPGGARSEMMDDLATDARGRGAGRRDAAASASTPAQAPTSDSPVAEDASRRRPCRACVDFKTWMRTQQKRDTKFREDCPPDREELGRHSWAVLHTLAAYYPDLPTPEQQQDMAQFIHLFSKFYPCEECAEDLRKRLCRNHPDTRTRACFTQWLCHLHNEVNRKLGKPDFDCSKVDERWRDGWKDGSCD
Cytochrome P450 2C9, sequence (P11712 whole entry): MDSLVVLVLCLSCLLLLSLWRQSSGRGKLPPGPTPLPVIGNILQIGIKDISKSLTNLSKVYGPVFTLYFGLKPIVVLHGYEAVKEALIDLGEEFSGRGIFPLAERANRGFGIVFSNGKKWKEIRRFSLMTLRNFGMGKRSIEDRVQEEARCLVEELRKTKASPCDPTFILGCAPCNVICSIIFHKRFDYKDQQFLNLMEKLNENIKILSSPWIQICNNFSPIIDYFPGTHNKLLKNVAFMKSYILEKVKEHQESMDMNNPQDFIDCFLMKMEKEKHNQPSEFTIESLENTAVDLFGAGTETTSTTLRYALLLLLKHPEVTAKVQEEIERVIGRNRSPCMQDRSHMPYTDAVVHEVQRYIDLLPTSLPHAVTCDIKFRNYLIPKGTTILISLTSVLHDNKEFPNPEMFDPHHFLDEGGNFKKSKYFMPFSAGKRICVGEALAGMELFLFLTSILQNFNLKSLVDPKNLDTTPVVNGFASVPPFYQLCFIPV

## CC(C)(Oc1ccc(Cl)cc1)C(=O)Nc1ccc2oc(-c3ccncc3)nc2c1
[1]
  EC50: > 260 µM (inactive)

## CCOc1ccc(CN(CCO)CCO)cc1C(=O)OC
[2]
  EC50: > 112 µM (not active)
[3]
  EC50: > 112 µM (not active)

## CC(C)[C@H](NC(=O)OC(C)(C)C)c1nnc(SCC(=O)Nc2ccc(Br)cc2)o1
[1]
  EC50: 98.6 µM (active)

## CCCn1c(=N)n(CC(=O)c2ccco2)c2ccccc21
Cytochrome P450 1A2
  AC50: 10 µM (inconclusive)
Cytochrome P450 3A4
  AC50: 35.5 µM (inconclusive)

## COc1ccc(Br)cc1C(=O)Nc1ccc(O)cc1
[4]
  AC50: 2.75 µM (active)

## CC(NC(=O)c1cc(S(=O)(=O)N2CCCC2)cn1C)c1ccccc1 (centres undefined)
[2]
  EC50: > 112 µM (not active)
[3]
  EC50: > 112 µM (not active)

## CCc1cc(C(=O)c2ccc(OC)cc2)c(N)s1
[1]
  EC50: > 260 µM (inactive)

## O=C(O)c1c(Cl)c(Cl)c(Cl)c(Cl)c1C(=O)N1CCCC1
[1]
  EC50: > 260 µM (inactive)

## COc1ccc(N2CCN(C(CNC(C)=O)c3ccc4c(c3)OCO4)CC2)cc1 (centres undefined)
[4]
  AC50: 4.58 µM (active)

## Cc1ccc(Cl)cc1NC(=O)c1cc(S(=O)(=O)N2CCOCC2)cn1C
[2]
  EC50: > 112 µM (not active)
[3]
  EC50: > 112 µM (not active)

## O=S(=O)(NC1CCCC1)c1ccc(S(=O)(=O)NC2CCCC2)cc1
[5]
  EC50: > 53 µM (inactive)

## c1ccc2c(C3=NN=C(NC4CC4)SC3)c[nH]c2c1
[2]
  EC50: > 112 µM (not active)
[3]
  EC50: 20.2 µM (active)
[1]
  EC50: > 260 µM (inactive)

## COC(=O)c1ccc(N2CCN(CC(=O)c3ccc(-c4ccccc4)cc3)CC2)c([N+](=O)[O-])c1
[2]
  EC50: > 112 µM (not active)
[3]
  EC50: > 112 µM (not active)

## Cc1ccc(Nc2nc(N3CCOCC3)c3ccccc3n2)cc1
[2]
  EC50: > 112 µM (not active)
[3]
  EC50: > 112 µM (not active)

## N#Cc1cccc(NC(=O)N2CC[C@@]3(CCCN(C(=O)c4ccco4)C3)C2)c1
Cytochrome P450 3A4
  AC50: 20 µM (inconclusive)

## CCN(CCNC(=O)c1ccc(C#N)cc1)c1cccc(C)c1
[4]
  AC50: 1.75 µM (active)

## O=C(Nc1nccs1)c1ccc(COc2ccccc2Cl)o1
[6]
  AC50: 2.45 µM (active)

## Cc1cc(O)nc2c(C)cc(S(=O)(=O)Nc3ccc(O)cc3)cc12
[4]
  AC50: 1.3 µM (active)

## O=C(NCCc1ccccc1)C(=O)NCC1(c2ccccc2)CCCC1
Cytochrome P450 2C19
  AC50: 39.8 µM (inconclusive)
Cytochrome P450 3A4
  AC50: 3.16 µM (inconclusive)

## COc1ccc(OC)c(NC(=O)NNC(=O)COc2ccc(-c3ccccc3)cc2)c1
[6]
  AC50: 47.3 µM (active)

## Cc1ccc(S(=O)(=O)N2CCN(C(=O)CSc3ccc(Cl)cc3)CC2)cc1
[1]
  EC50: > 260 µM (inactive)

## O=c1c(/C=N/Nc2ccccc2)c(Sc2nnnn2-c2ccccc2)nc2ccccn12
[5]
  EC50: 10.1 µM (active)

## COc1ccccc1Nc1nc(NCc2ccco2)c2ccccc2n1
[2]
  EC50: > 112 µM (not active)
[3]
  EC50: > 112 µM (not active)

## O=C(Nc1ccc(O)c(-c2nc3ccccc3o2)c1)C1(c2ccc(Cl)cc2)CCCC1
[1]
  EC50: > 260 µM (inactive)

## Cc1[nH]c2ccccc2c1/C=N/O
[4]
  AC50: 20.2 µM (active)

## CCOC(=O)C(C)n1cnc2c(nnn2-c2ccc(F)cc2)c1=O (centres undefined)
[2]
  EC50: > 112 µM (not active)
[3]
  EC50: > 112 µM (not active)

## COc1ccc(Br)cc1/C=N/Nc1ccc(Cl)c(C(=O)O)c1
[4]
  AC50: 6.26 µM (active)

## O=C1CC(c2ccc(F)cc2)CC2=Nc3ccccc3NC=C12 (centres undefined)
[6]
  AC50: 3.58 µM (active)

## Cc1[nH]c2ccccc2c1C(=O)CSc1nncn1C
[2]
  EC50: > 112 µM (not active)
[3]
  EC50: > 112 µM (not active)

## O=S(=O)(Nc1ccc(-c2ccc3nncn3n2)cc1)c1cc(F)ccc1F
[2]
  EC50: > 112 µM (not active)
[3]
  EC50: > 112 µM (not active)

## COC(=O)C1CCN(C(=O)COC(=O)c2ccc(OC)c(S(=O)(=O)N3CCCc4ccccc43)c2)CC1
[1]
  EC50: > 260 µM (inactive)

## CCN1CCCC1CNC(=O)C1c2cc(OC)c(OC)cc2C(=O)N(C)C1c1cccnc1 (centres undefined)
Cytochrome P450 2C19
  AC50: 1.12 µM (inconclusive)
Cytochrome P450 3A4
  AC50: 5.62 µM (inconclusive)
Cytochrome P450 2C9
  AC50: 1.78 µM (inconclusive)

## CCc1ccc(NC(=O)CN2C(=O)CSC2=O)cc1
[4]
  AC50: 1.2 µM (active)

## Cc1cccc(NC(=O)CC(C)S(=O)(=O)c2ccc3c(c2)NC(=O)CO3)c1C (centres undefined)
[1]
  EC50: > 260 µM (inactive)

## CC1=CC(=O)OC2CC3OC4C[C@@H](C)C5OC6CC7O[C@]8(C)C/C=C\C9OC%10CC%11OC(CC(C)C%12OCCO%12)CC(O)[C@]%11(C)OC%10CC9OC8C[C@]7(C)O[C@]6(C)CCC5OC4C[C@]3(C)OC12 (some centres undefined)
[5]
  EC50: 5.68 µM (active)

## CCc1ccc(CN2C(=O)c3ccccc3C2C(=O)NCC2CCCO2)cc1 (centres undefined)
[1]
  EC50: 137 µM (active)

## Cc1ccc(O)c(NC(=O)C2CCCN2C(=O)OCc2ccccc2)c1 (centres undefined)
[4]
  AC50: 8.89 µM (active)

## CCc1cc2c(nc1CC)CCN(CC/C(C)=N/OC)C2
Cytochrome P450 2D6
  AC50: 3.16 µM (inconclusive)
Cytochrome P450 3A4
  AC50: 3.16 µM (inconclusive)

## NC(=O)NC(=O)CSc1nnc(-c2ccco2)n1Cc1ccccc1
Cytochrome P450 3A4
  AC50: 25.1 µM (inconclusive)
Cytochrome P450 2C9
  AC50: 12.6 µM (inconclusive)

## CNC(=O)[C@H]1O[C@H](n2cnc3c(NCc4cccc(I)c4)ncnc32)[C@@H](O)[C@@H]1O
Cytochrome P450 3A4
  AC50: 31.6 µM (inconclusive)

## Cc1cccc(C)c1NS(=O)(=O)c1ccc(NC(=O)c2ccc(Cl)c([N+](=O)[O-])c2)cc1
[6]
  AC50: 1.46 µM (active)

## Cc1ccc(NC(=O)CSCc2ccc(F)cc2)cc1
[2]
  EC50: > 112 µM (not active)
[3]
  EC50: > 112 µM (not active)

## CCOc1cc(C(=S)N2CCOCC2)ccc1OS(=O)(=O)c1ccc(C)cc1
[1]
  EC50: > 260 µM (inactive)

## CCOC(=O)c1c(C)nc2c(c1-c1ccc(Cl)cc1)C(=O)CC(C)(C)C2
[6]
  AC50: 12.2 µM (active)

## NC(=NO)c1cn(Cc2ccccc2Cl)c2ccccc12
[4]
  AC50: 0.488 µM (active)

## CCOC(=O)c1cc(NC(=O)COc2ccc([N+](=O)[O-])cc2)cc(C(=O)OCC)c1
[1]
  EC50: > 260 µM (inactive)

## COc1ccc(-c2cc(CCCC(=O)NCCc3ccc(OC)cc3OC)no2)cc1
[1]
  EC50: > 260 µM (inactive)
Cytochrome P450 2C19
  AC50: 1.41 µM (active)
Cytochrome P450 2D6
  AC50: 1.12 µM (active)
Cytochrome P450 1A2
  AC50: 0.562 µM (active)
Cytochrome P450 2C9
  AC50: 0.562 µM (active)

## COc1nc(Oc2ccc(/C=N/O)cc2)nc(N(C)C)n1
[4]
  AC50: 2.99 µM (active)
Cytochrome P450 2C19
  AC50: 17.8 µM (inconclusive)
Cytochrome P450 2D6
  AC50: 22.4 µM (inconclusive)

## COc1ccc(C2NC(=O)c3[nH]nc(C)c32)c(OC)c1 (centres undefined)
[2]
  EC50: > 112 µM (not active)
[3]
  EC50: 2.83 µM (active)
